The values below come from patent US12521393B2, “Cytotoxicity targeting chimeras for CCR2-expressing cells” (GLAXOSMITHKLINE INTELLECTUAL PROPERTY DEVELOPMENT LIMITED, priority 2021, dated 2026).

SMILES strings stand for the structures. Where “and” joins values, the source holds several entries; their conditions need not be identical. Equal values may be shown once.

Experiment [1] relates to endogenous target monocytes in human PBMC. The experiment is described as follows: PBMC ex vivo monocyte depletion flow cytometry assay (Example 200). Type of experiment: cell-based. The note with it: with anti-cotinine antibody (SEQ ID NO: 11/12), 18-24 hours, EC50 in molar; for EC50: read-out: Ex Vivo Depletion Assay pEC50 (converted). The procedure, abridged:
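Monocyte depletion is reported as pEC50, averaged or given individually across runs, and read by flow cytometry staining CD45, CD14 and CD4 with a viability dye. Compounds, diluted four-fold over 11 points from 1 mM DMSO stocks, were combined with 30 μg/mL Fc-enhanced anti-cotinine antibody and human PBMC, then incubated 18-24 h at 37° C.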

The target of experiment [2] is T1, CHOK1 cells engineered to overexpress human CCR2 (Homo sapiens, UniProt P41597).
T1 construct: expressed in transfected cells; host or cells: CHOK1
The experiment is described as follows: Antibody dependent cellular cytotoxicity (ADCC) reporter assay (Example 199). Type of experiment: cell-based. The note with it: with anti-cotinine antibody (SEQ ID NO: 11/12), Jurkat FcγRIIIa NFAT-luciferase reporter cells, 12-18 hours, EC50 in molar, average or individual runs; for EC50: read-out: ADCC Reporter Assay pEC50 (converted). The protocol: An antibody dependent cellular cytoxocity reporter assay was conducted using the following four assay components: (i) ARM compound of Formula (I) targeting CCR2 (concentrations ranging from […] to 10 μM) (ii) anti-cotinine antibody having a heavy chain sequence of SEQ ID NO: 11 and a light chain sequence of SEQ ID NO: 12 (rabbit variable region with human IgG1 Fc domain containing a DE mutation (S239D/1332E)) (concentrations ranging from 0.01 μg/mL to 200 μg/mL); (iii) target cells: CHOK1 cells engineered to overexpress either human CCR2 (typically 1000-20,000 cells per well) and (iv) reporter cells: Jurkat cells engineered to express FcγRIIIa with the reporter gene luciferase under the control of the NFAT promoter (typically 3000-75,000 cells per well). Reagents were combined in a final volume of 20 μL in a 384-well tissue culture treated plate. All four assay components were incubated together for about 12-18 hours. Thereafter, BioGlo Detection reagent (Promega) was added to the wells to lyse the cells and provide a substrate for the luciferase reporter protein. Luminescence signal was measured on a microplate reader and signal: background was calculated by dividing the signal of a test well by the signal obtained when no heterobivalent compound of Formula (I) was added. EC50 calculations were done using Graphpad Prism Software, specifically a nonlinear regression curve fit (Y=Bottom+(Top−Bottom)/(1+10A((LogEC50−X)*HillSlope))).
ARMs compounds of Formula (I) of the invention were tested for ADCC activity in the above assay in or more experimental runs and the results are shown in Table 3 below. Potency of the compounds of Formula (I) of the invention is reported as a pEC50 value. The pEC50 value is the negative log of the EC50 value, wherein the EC50 value is the half maximal effective concentration measured in molar (M). For compounds tested in more than one experimental run, the pEC50 value is reported as an average.
In general terms: Reporter assays use an easily measured gene product as a stand-in for the process of interest.

The target in experiment [3] is anti-cotinine antibody (SEQ ID NO: 11/12, rabbit variable region with human IgG1 Fc DE mutation). The experiment is described as follows: SPR binding of anti-cotinine antibody to ARM compounds, Biacore T200, 37° C. (Example 202). The note with it: SPR Biacore T200, 37° C., pH 7.4, antibody SEQ ID NO: 11/12 captured on protein A; Kd in molar. The procedure, abridged: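 Run at 37 °C in 10 mM HEPES pH 7.4, 150 mM NaCl, 0.005% P20, 1% DMSO, with compounds titrated from 200 nM (five 3-fold steps) over protein A–captured antibody. A 1:1 kinetic model on double-referenced data gave rate constants, Kd as koff/kon and residence time 1/koff; results as pKd, run-averaged.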
(Surface plasmon resonance follows binding to a sensor surface in real time, without labels.)

In experiment [4] the test system is CCR2 expressing cells (CD11b+Ly6c+Hi) in peripheral blood. The experiment is described as follows: In vivo depletion assay, flow cytometry of peripheral blood (Example 201). On the set-up: species or system human CCR2 knock-in mice (C57 background). To be noted: hCCR2 knock-in mice, IV 0.1 mpk compound + 10 mpk anti-cotinine antibody (SEQ ID NO: 13/14), peripheral blood at 48 hr. The method, boiled down: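 Flow cytometry of blood collected at study termination quantified percent depletion of CD11b+Ly6c+Hi cells and CCR2 expression, using surface markers CD45, CD3, CD11b, Ly6C, human CCR2 after Fc block, with 7AAD viability stain. Compound given in saline:DMSO:PBS formulation, optionally combined with anti-cotinine antibody, incubated 30 min before administration.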
(In flow cytometry, cells or beads pass a laser one at a time.)

Take `CC(C)N(C)[C@@H]1CC[C@H](N2CC[C@H](Nc3ncnc4ccc(C(F)(F)F)cc34)C2=O)[C@H](N[C@H]2CC[C@@H](C(=O)NCCOCCOCCOCCOCCNC(=O)[C@H]3CC(=O)N(C)[C@@H]3c3cccnc3)CC2)C1` [Example 67]: the values for the EC50 in experiment [1] and in experiment [2] were 3.98 nM and 5.01 nM, respectively.

As for `CC(C)N(C)[C@@H]1CC[C@H](N2CC[C@H](Nc3ncnc4ccc(C(F)(F)F)cc34)C2=O)[C@H](NC(=O)CCOCCOCCOCCOCCOCCOCCOCCOCCOCCOCCOCCOCCOCCOCCOCCOCCOCCOCCOCCOCCOCCOCCOCCNC(=O)C2CC(=O)N(C)C2c2cccnc2)C1` (stereo in doubt) [Example 43, (2R,3R)-N-(72-(((1R,2S,5R)-5-(isopropyl(methyl)amino)-2-((S)-2-oxo-3-((6-(trifluoromethyl)quinazolin-4-yl)amino)pyrrolidin-1-yl)cyclohexyl)amino)-72-oxo-3,6,9,12,15,18,21,24,27,30,33,36,39,42,45,48,51,54,57,60,63,66,69-tricosaoxadoheptacontyl)-1-methyl-5-oxo-2-(pyridin-3-yl)pyrrolidine-3-carboxamide], the “ADCC Reporter Assay pEC50” value in experiment [2] was 8.8.

As to `CC(C)N(C)[C@@H]1CC[C@H](N2CC[C@H](Nc3ncnc4ccc(C(F)(F)F)cc34)C2=O)[C@H](NC(=O)CCCCCCCCC(=O)NCCCCCCNC(=O)[C@H]2CC(=O)N(C)[C@@H]2c2cccnc2)C1` [Example 166, N1-((1R,2S,5R)-5-(isopropyl(methyl)amino)-2-((S)-2-oxo-3-((6-(trifluoromethyl)quinazolin-4-yl)amino)pyrrolidin-1-yl)cyclohexyl)-N10-(6-((2S,3S)-1-methyl-5-oxo-2-(pyridin-3-yl)pyrrolidine-3-carboxamido)hexyl)decanediamide], the EC50 in experiment [1] is 1.26 nM; in experiment [2], 0.501 nM.

With `CN1C(=O)C[C@H](C(=O)NCCCOCCCNC(=O)CCCC(=O)NC2CCC(C(=O)N[C@@H]3C[C@H](NC(C)(C)C)CC[C@@H]3N3CC[C@H](Nc4ncnc5ccc(C(F)(F)F)cc45)C3=O)CC2)[C@H]1c1cccnc1` (stereo partly drawn) [Example 22, N1-((1R,4r)-4-(((1R,2S,5R)-5-(tert-Butylamino)-2-((S)-2-oxo-3-((6-(trifluoromethyl)quinazolin-4-yl)amino)pyrrolidin-1-yl)cyclohexyl)carbamoyl)cyclohexyl)-N5-(3-(3-((2S,3S)-1-methyl-5-oxo-2-(pyridin-3-yl)pyrrolidine-3-carboxamido)propoxy)propyl)glutaramide], in experiment [1], the “Ex Vivo Depletion Assay pEC50” value was 9.2. The “ADCC Reporter Assay pEC50” value in experiment [2] is 9 and 9.3. Moreover, the “pKd of Antibody for ARM Compound of Formula (I)” value (from here on “pKd of Antibody”) in experiment [3] is listed as 9.2495.

In the case of `CC(C)N(C)[C@@H]1CC[C@H](N2CC[C@H](Nc3ncnc4ccc(C(F)(F)F)cc34)C2=O)[C@H](NC(=O)CCOCCOCCOCCOCCNC(=O)[C@H]2CC(=O)N(C)[C@@H]2c2cccnc2)C1` [Example 39, (2S,3S)-N-(15-(((1R,2S,5R)-5-(Isopropyl(methyl)amino)-2-((S)-2-oxo-3-((6-(trifluoromethyl)quinazolin-4-yl)amino)pyrrolidin-1-yl)cyclohexyl)amino)-15-oxo-3,6,9,12-tetraoxapentadecyl)-1-methyl-5-oxo-2-(pyridin-3-yl)pyrrolidine-3-carboxamide], the EC50 in experiment [1] was 2510 nM; in experiment [2], 15.8 nM.

For `CC(C)N(CCOCCOCCC(=O)N[C@H]1CC[C@@H](C(=O)N[C@@H]2C[C@H](N(C)C(C)C)CC[C@@H]2N2CC[C@H](Nc3ncnc4ccc(C(F)(F)F)cc34)C2=O)CC1)C(=O)CCNC(=O)[C@H]1CC(=O)N(C)[C@@H]1c1cccnc1` [Example 178, (2S,3S)-N-(3-(Isopropyl(2-(2-(3-(((1S,4s)-4-(((1R,2S,5R)-5-(isopropyl(methyl)amino)-2-((S)-2-oxo-3-((6-(trifluoromethyl)quinazolin-4-yl)amino)pyrrolidin-1-yl)cyclohexyl)carbamoyl)cyclohexyl)amino)-3-oxopropoxy)ethoxy)ethyl)amino)-3-oxopropyl)-1-methyl-5-oxo-2-(pyridin-3-yl)pyrrolidine-3-carboxamide], the EC50 in experiment [1] is 0.398 nM; in experiment [2], 0.501 nM and 0.126 nM.

As to `CC(C)N(C)[C@@H]1CC[C@H](N2CC[C@H](Nc3ncnc4ccc(C(F)(F)F)cc34)C2=O)[C@H](NC(=O)CCOCCNC(=O)[C@H]2CC[C@H](NC(=O)COCCNC(=O)[C@H]3CC(=O)N(C)[C@@H]3c3cccnc3)CC2)C1` [Example 108, (2S,3S)-N-(2-(2-(((1R,4S)-4-((2-(3-(((1R,2S,5R)-5-(Isopropyl(methyl)amino)-2-((S)-2-oxo-3-((6-(trifluoromethyl)quinazolin-4-yl)amino)pyrrolidin-1-yl)cyclohexyl)amino)-3-oxopropoxy)ethyl)carbamoyl)cyclohexyl)amino)-2-oxoethoxy)ethyl)-1-methyl-5-oxo-2-(pyridin-3-yl)pyrrolidine-3-carboxamide], in experiment [1], the EC50 was 0.398 nM. Further, the “% Depletion of CCR2 expressing cells” value in experiment [4] turned out to be 93%. In experiment [3], the “pKd of Antibody” value is recorded as 8.9855.

As to `CC(C)N(C)[C@@H]1CC[C@H](N2CC[C@H](Nc3ncnc4ccc(C(F)(F)F)cc34)C2=O)[C@H](Nc2c(NCCOCCOCCOCCOCCOCCNC(=O)[C@H]3CC(=O)N(C)[C@@H]3c3cccnc3)c(=O)c2=O)C1` [Example 85, (2S,3S)-N-(17-((2-(((1R,2S,5R)-5-(Isopropyl(methyl)amino)-2-((S)-2-oxo-3-((6-(trifluoromethyl)quinazolin-4-yl)amino)pyrrolidin-1-yl)cyclohexyl)amino)-3,4-dioxocyclobut-1-en-1-yl)amino)-3,6,9,12,15-pentaoxaheptadecyl)-1-methyl-5-oxo-2-(pyridin-3-yl)pyrrolidine-3-carboxamide], the EC50 in experiment [1] is 2 nM. Besides, the “% Depletion of CCR2 expressing cells” value in experiment [4] is 57%. The “pKd of Antibody” value in experiment [3] is 9.6885.

On to `CC(C)N(C)[C@@H]1CC[C@H](N2CC[C@H](Nc3ncnc4ccc(C(F)(F)F)cc34)C2=O)[C@H](NC(=O)C2CCC(N3CCC(S(=O)(=O)NCCCCCCNC(=O)[C@H]4CC(=O)N(C)[C@@H]4c4cccnc4)CC3)CC2)C1` (single isomer, unassigned) [Example 149], for which the EC50 in experiment [1] and in experiment [2] was 0.251 nM in each case.
